Source: patent US10537571B2, “Pyrimidine FGFR4 inhibitors” (priority 2013, dated 2020)
Where two headings read alike, the source gives them in different places.

Tested on: HEP3B tumor xenografts
Assay type: in vivo
Settings: for comparative tumor growth efficacy: Hep3B

Row | Compound | comparative tumor growth efficacy (25, 37.5 or 50 mg/kg i.p. twice daily) | tolerability (health of animals) (30 mg/kg orally twice daily) | tolerability (health of animals) (60 mg/kg orally twice daily, dosing terminated on Day 11) | comparative tumor growth efficacy (60 mg/kg orally twice daily)
1 | C=CC(=O)Nc1cc(N2CCN(CC)CC2)ccc1Nc1cc(N(C)C(=O)Nc2c(Cl)c(OC)cc(OC)c2Cl)ncn1 [Compound 108, N-(2-(6-(3-(2,6-Dichloro-3,5-dimethoxyphenyl)-1-methylureido)pyrimidin-4-ylamino)-5-(4-ethylpiperazin-1-yl)-phenyl)acrylamide] | more efficacious than BGJ398 |  |  | 
2 | CCN1CCN(c2ccc(Nc3cc(N(C)C(=O)Nc4c(Cl)c(OC)cc(OC)c4Cl)ncn3)cc2)CC1 [BGJ398] |  | did not exhibit poor health | poor health of animals | efficacy comparable to compound 108
